This is an account of results in patent publication US20080039432A1, “Active Compound Combinations Having Insecticidal Properties” (priority 2004, published 2008).

Like-named read-outs stand apart in the source and are kept apart here.

What all share (type): in vivo
The subject of one assay is Myzus persicae. As to the method: (§1) To produce a suitable preparation of active compound, 1 part by weight of active compound is mixed with the stated amounts of solvent and emulsifier, and the concentrate is diluted with emulsifier-containing water to the desired concentration.
Cabbage leaves (Brassica oleracea) which are heavily infested by the green peach aphid (Myzus persicae) are treated by being dipped into the preparation of active compound of the desired concentration.
After the desired period of time, the kill in % is determiined. 100% means that all aphids have been killed; 0% means that none of the aphids have been killed. The determined kill rates are entered into Colby's formula.

For assay [1], the system named is Phaedon cochleariae larvae. The assay can be described thus: Phaedon cochleariae larvae test (cabbage leaf dip). As to the method: Phaedon Cochleariae Larvae Test
as §1
Cabbage leaves (Brassica oleracea) are treated by being dipped into the active compound preparation of the desired concentration and are populated with larvae of the mustard beetle (Phaedon cochleariae) while the leaves are still moist.
After the desired period of time, the kill in % is determined. 100% means that all larvae have been killed; 0% means that none of the larvae have been killed. The determined kill rates are entered into Colby's formula.

The test system of assay [2] is Plutella xylostella, resistant strain. The note with it: Table A, 20 ppm, caterpillars on dipped cabbage leaves. On the procedure: Plutella Xylostella Test, Resistant Strain
as §1
Cabbage leaves (Brassica oleracea) are treated by being dipped into the active compound preparation of the desired concentration and are populated with caterpillars of the diamondback moth (Plutella xylostella, resistant strain) while the leaves are still moist.
After the desired period of time, the kill in % is determined. 100% means that all caterpillars have been killed; 0% means that none of the caterpillars have been killed. The determined kill rates are entered into Colby's formula.

As for `CNC(=O)O/N=C/C(C)(C)SC` [aldicarb], the “Kill in % after 1 d” value with Myzus persicae (Table B1, 4 ppm) is 45%; in assay [1] (Table C1, 20 ppm), 25%; in assay [1] (Table C2, 20 ppm), 25%.
As to `CN/C(=N/[N+](=O)[O-])NCc1cnc(Cl)s1` [clothianidin], in assay [2], the “Kill in % after 6 days” value is 0%. Moreover, the “Kill in % after 1 d” value was determined as 50% in the assay on Myzus persicae (Table B1, 0.80 ppm) and 65% in assay [1] (Table C2, 4 ppm).
Turning to `O=[N+]([O-])N=C1NCCN1Cc1ccc(Cl)nc1` [imidacloprid], the “Kill in % after 1 d” value turned out to be 20% in the assay on Myzus persicae (Table B1, 0.16 ppm); 10% with Myzus persicae (Table B2, 0.16 ppm); 5% in assay [1] (Table C1, 4 ppm); 20% in assay [1] (Table C2, 4 ppm).
On to ethoprophos, for which the “Kill in % after 6 days” value in assay [2] was 5%. Moreover, in the assay with Myzus persicae (Table B2, 20 ppm), the “Kill in % after 1 d” value is 0%.
